Measurements published in patent US20240277873A1, “ULTRABRIGHT […] PROBES FOR DETECTION AND IMAGING” (Nanyang Technological University, priority 2021, published 2024).
Read-outs that look alike come from different tables or passages of the source.

What was measured:
[1] = Fluorescence quantum yield of activated probes; format: physicochemical; details: Rhodamine B as standard (QY 36%), PBS (10 mM, pH 7.4)
Description: (§1) The chemiluminescence QYs of BOPDSu, BTPDSu, MBPDSu, and MPDSu (20 μM) were measured in the presence of O2^•- (100 μM) in PBS (10 mM, pH 7.4, 10% DMSO) at 37° C. The fluorescence QYs were determined by using Rhodamine B as a standard dye (QY 36%) in PBS (10 mM, pH 7.4) (X. Zhen et al., ACS Nano 2016, 10, 6400-6409). The fluorescence QY of AMPD was obtained from the literature (O. Green et al., ACS Cent. Sci. 2017, 3, 349-358).

[2] = cited from earlier work
[3] = Chemiluminescence and fluorescence changes of probes toward O2•- (KO2): response, selectivity, LOD; details: for LOD against O2•-: KO2 0-1000 nM, LOD=3σ/k; for LOD against O2•- / fluorescent signal enhancement upon cleavage by O2•-: PBS (10 mM, pH 7.4, 10% DMSO), 37° C.; for chemiluminescence intensity increase after addition of O2•- / fluorescent signal enhancement upon cleavage by O2•-: probe 20 μM; for chemiluminescence intensity increase after addition of O2•-: O2•- 40 μM for 10 s, PBS pH 7.4, 37° C., at 480 / 520 / 580 / 540 nm; for fluorescent signal enhancement upon cleavage by O2•-: at ~486 / 532 / 582 / 542 nm
Description: The chemiluminescence and fluorescence changes of BOPDSu, BTPDSu, MBPDSu and MPDSu (20 μM) were recorded at different concentrations of RONS (40 μM) and other metal ions (100 μM). BOPDSu, BTPDSu, MBPDSu and MPDSu (20 μM) in phosphate buffered saline (PBS) buffer were treated in the presence of different RONS (40 μM), and metal ions (Mg^2+, Ca^2+ or Fe^2+, 100 μM) at 37° C.
The chemiluminescence signals were recorded at different concentrations of KO2 (0, 50, 100, 250, 500 and 1000 nM). Then, the limit of detection (LOD) of BOPDSu, BTPDSu, MBPDSu and MPDSu were calculated by chemiluminescence intensities based on the equation: LOD=3σ/k, where σ is the standard deviation of emission intensity of blank, and k is the slope of plot of emission intensities.

[4] = Chemiluminescence quantum yield in the presence of O2•-; format: physicochemical; details: probe 20 μM, O2•- 100 μM, PBS (10 mM, pH 7.4, 10% DMSO), 37° C.
Description: as §1

[5] = Chemiluminescence kinetic studies (half-lives, CL emission) of caged probes in the presence of O2•-; format: physicochemical; details: caged probe after activation, in PBS (10% DMSO) at 37° C.
Description: FIG. […]
[…] The chemiluminescent intensities were plotted as a function of time.
[…] The chemiluminescence signal was recorded by the microplate reader to calculate half-lives of BTPDSu at different pHs.

[6] = system: dorsal skins of mice; assay: Histopathologic, immunohistochemical and flow cytometry analyses of dorsal skins (IMQ psoriasis model); format: in vivo, BALB/c mice
Description: The control group was treated with Vaseline (50 mg/d) and the IMQ-treatment group was applied with IMQ cream (60 mg/d, 5%) once a day. […] Probe BTPDNe (10 uM, 1 mM in DMSO) was thoroughly mixed with Aquaphor (˜10 mg) and applied for psoriasis imaging, followed by poly(methyl methacrylate) microneedle treatment for 1 min. Then, chemiluminescent signals at different time-points (0, 3, 5, 10, 15, 30, 45 and 60 min) after probe-treatment were recorded using IVIS system bioluminescence with acquiring time of 180 s. Until the third day, all the mice were sacrificed to collect tissue and blood for further experiments (hematoxylin and eosin (H&E) staining and flow cytometry analysis) as described in Example 11.
The dorsal skin samples were separated and soaked in 4% paraformaldehyde (4% PFA) for 12 h and immersed in 30% sucrose solution. The skin samples were stained by hematoxylin and eosin (H&E). Then, the samples were flash-frozen by liquid nitrogen, immobilized with optimal cutting temperature compound, and section slices ([…]). The thickness of epidermis was observed under a microscope (Nikon ECLIPSE 80i microscope). APC-Ly6G, as a neutrophil marker, was used to stain neutrophil cells and DAPI was applied for cell nucleus staining. The immunofluorescence was observed by Nikon ECLIPSE 80i microscope.
After performing in vivo chemiluminescence imaging of neutrophils using BTPDNe in psoriasis-bearing mice with 2 day IMQ treatment, fresh section slices from dorsal skins were stained with Ly6G. Immunofluorescence imaging of slices with activated BTPDNe in green color was observed upon excitation at 405 nm and emission at 500-550 nm, while red color from Ly6G was observed upon excitation from 633-647 nm and emission at 660 nm. The immunofluorescence imaging was acquired by Nikon ECLIPSE 80i microscope.

[7] = uncaged, in PBS (5% DMSO), pH 7.4, 37° C.
[8] = uncaged, in PBS (10% DMSO), pH 7.4, 37° C.
[9] = uncaged, in PBS (10% DMSO), pH 10, 37° C.
[10] = uncaged, in PBS, pH 7.4, 10% FBS

Molecule: COC(=O)c1cc(O)c(-c2nc3ccccc3s2)cc1/C=C/c1cc[n+](C)cc1.[I-] [AMBPD]
- ΦFl, fluorescence QY of activated probe [1]: 7.5%

Molecule: COC1(c2cccc(O)c2)OOC12C1CC3CC(C1)CC2C3 (stereo not drawn)
- CL Emission ([2]; uncaged, in o-Xylene at 25° C.): ~460 nm

Molecule: CC(=O)Oc1cc(C23OCC(C)(C)C2(C(C)(C)C)OO3)cc2ccc(=O)oc12 (stereo not drawn)
- CL Emission ([2]; caged, after activation, in DMSO with 170 μM TBAF at 25° C.): 470 nm

Molecule: benzoxazole-phenoxyl-dioxetane [BOPDSu]
- LOD against O2•- [3]: ~5.7 nM
- chemiluminescence intensity increase after addition of O2•- [3]: 3291 times
- fluorescent signal enhancement upon cleavage by O2•- [3]: 45.3 folds
- ΦCl, chemiluminescence QY [4]: 0.189 einsteins/mol

Molecule: COC1(c2ccc(/C=C/C#N)c(OCc3ccc4c(c3)C(=O)C(=O)N4)c2Cl)OOC12C1CC3CC(C1)CC2C3 (stereo not drawn)
- CL Emission ([2]; caged, after activation, in 20 mM HEPES (pH 7.4), 1% DMSO): 525 nm

Molecule: COC(=O)/C=C/c1ccc(C2(OC)OOC23C2CC4CC(C2)CC3C4)c(Cl)c1O (stereo not drawn) [drawing 50]
- CL Emission [2, 7]: 540 nm

Molecule: COC1(c2ccc(/C=C/C#N)c(O)c2Cl)OOC12C1CC3CC(C1)CC2C3 (stereo not drawn) [drawing 51]
- CL Emission [2, 7]: 525 nm

Molecule: COC1(c2ccc(/C=C/C#N)c(OC(=O)c3ccccc3P(c3ccccc3)c3ccccc3)c2Cl)OOC12C1CC3CC(C1)CC2C3 (stereo not drawn)
- CL Emission ([2]; caged, after activation, in 20 mM HEPES or PBS (pH 7.4), 1% DMSO): 525 nm

Molecule: COC1(c2ccc(/C=C/C(=O)O)c(O)c2Cl)OOC12C1CC3CC(C1)CC2C3 (stereo not drawn)
- CL Emission [2, 8]: 510 nm
- CL Emission [2, 9]: 510 nm

Molecule: COC1(c2cc(O)cc3oc(=O)ccc23)OOC12C1CC3CC(C1)CC2C3 (stereo not drawn)
- CL Emission [2, 8]: 465 nm

Molecule: COC(=O)/C=C/c1ccc(C2(OC)OOC23C2CC4CC(C2)CC3C4)c(Cl)c1O (stereo not drawn) [drawing 49]
- CL Emission [2, 8]: 540 nm
- CL Emission [2, 9]: 550 nm

Molecule: COC1(c2cccc(O)c2Cl)OOC12C1CC3CC(C1)CC2C3 (stereo not drawn)
- CL Emission [2, 7]: 470 nm
- CL Emission ([2]; uncaged, in PBS (5% DMSO), pH 10, 37° C.): 470 nm

Molecule: COC1(c2ccc(/C=C/c3ccc(C(=O)O)cc3)c(O)c2Cl)OOC12C1CC3CC(C1)CC2C3 (stereo not drawn)
- CL Emission [2, 8]: 535 nm
- CL Emission [2, 9]: 535 nm

Molecule: 1-methylpyridinium-benzothiazole-phenoxyl-dioxetane [MBPDSu]
- LOD against O2•- [3]: 6.3 nM
- chemiluminescence intensity increase after addition of O2•- [3]: 2590 times
- fluorescent signal enhancement upon cleavage by O2•- [3]: 40.5 folds
- CL Emission [5]: 580 nm
- ΦCl, chemiluminescence QY [4]: 0.045 einsteins/mol

Molecule: COC1(c2cc(O)c(/C=C/C(=O)O)cc2/C=C/C2=CC(=C(C#N)C#N)c3ccccc3O2)OOC12C1CC3CC(C1)CC2C3 (stereo not drawn)
- CL Emission [2, 10]: 690 nm

Molecule: CC(C)Cn1cnc2c(N)nc3ccccc3c21 [IMQ, Imiquimod]
- population of NE-expressing neutrophils in skins relative to CsA-treated group ([6]; day 2, flow cytometry): 2.62 times
- population of NE-expressing neutrophils in skins relative to control group ([6]; day 2, flow cytometry): 2.03 times
- skin thickness and neutrophil (CD11c+, Ly6G+) population / infiltration ([6]; dorsal skins, histology and immunohistochemistry, vs control group): increased thickness and neutrophil (CD11c+, Ly6G+) infiltration

Molecule: COC(=O)c1ccc(-c2nc3ccccc3o2)c(O)c1 [ABOPD]
- ΦFl, fluorescence QY of activated probe [1]: 33.0%

Molecule: methyl acrylate-phenoxyl-dioxetane [MPDSu, reference compound]
- LOD against O2•- [3]: 13.6 nM
- chemiluminescence intensity increase after addition of O2•- [3]: 2624 times
- fluorescent signal enhancement upon cleavage by O2•- [3]: 11.2 folds
- ΦCl, chemiluminescence QY [4]: 0.023 einsteins/mol

Molecule: COC1(c2ccc(/C=C/C#N)c(O)c2Cl)OOC12C1CC3CC(C1)CC2C3 (stereo not drawn) [drawing 52]
- CL Emission [2, 8]: 525 nm
- CL Emission [2, 9]: 525 nm

Molecule: COC1(c2cc(O)ccc2/C=C/C2=CC(=C(C#N)C#N)c3ccccc3O2)OOC12C1CC3CC(C1)CC2C3 (stereo not drawn)
- CL Emission [2, 10]: 660 nm

Molecule: COC(=O)c1ccc(-c2nc3ccccc3s2)c(O)c1 [ABTPD]
- ΦFl, fluorescence QY of activated probe [1]: 24.1%

Molecule: COC1(c2ccc(/C=C/c3ccc(CC(=O)O)cc3)c(O)c2Cl)OOC12C1CC3CC(C1)CC2C3 (stereo not drawn)
- CL Emission [2, 8]: 500 nm
- CL Emission [2, 9]: 500 nm

Molecule: COC1(c2ccc(/C=C/c3ccc(OCC(=O)O)cc3)c(O)c2Cl)OOC12C1CC3CC(C1)CC2C3 (stereo not drawn)
- CL Emission [2, 8]: 490 nm
- CL Emission [2, 9]: 490 nm
